Experimental data: ChEMBL document CHEMBL5528082 (J Med Chem, 2024)
Converted amounts (≈) assume the structure as drawn.

Tests used:
Staphylococcus aureus [1] = experiment: Antibacterial activity against TMP-resistant Staphylococcus aureus BHKS 231 incubated for 24 hrs by CLSI based broth microdilution assay; assay type: functional
Staphylococcus aureus [2] = experiment: Antibacterial activity against TMP-resistant Staphylococcus aureus BHKS 227 incubated for 24 hrs by CLSI based broth microdilution assay; assay type: functional
Staphylococcus aureus [3] = experiment: Antibacterial activity against Staphylococcus aureus ATCC 25923 incubated for 24 hrs by CLSI based broth microdilution assay; assay type: functional
Staphylococcus aureus [4] = experiment: Antibacterial activity against Staphylococcus aureus USA 300 incubated for 24 hrs by CLSI based broth microdilution assay; assay type: functional
Staphylococcus aureus [5] = experiment: Antibacterial activity against TMP-resistant Staphylococcus aureus BHKS 723 incubated for 24 hrs by CLSI based broth microdilution assay; assay type: functional
Staphylococcus aureus [6] = experiment: Antibacterial activity against TMP-resistant Staphylococcus aureus BHKS 721 incubated for 24 hrs by CLSI based broth microdilution assay; assay type: functional
Dihydrofolate reductase [7] = molecular target: Dihydrofolate reductase (Staphylococcus aureus, UniProt P0A017); experiment: Inhibition of Staphylococcus aureus DHFR expressed in Escherichia coli BL21 (DE3) using DHF as substrate preincubated for 10 mins followed by substrate addition measured for 10 mins in presence of NADPH by spectrophotometry
Chain of Dihydrofolate reductase (Staphylococcus aureus, UniProt P0A017) (P0A017 whole entry): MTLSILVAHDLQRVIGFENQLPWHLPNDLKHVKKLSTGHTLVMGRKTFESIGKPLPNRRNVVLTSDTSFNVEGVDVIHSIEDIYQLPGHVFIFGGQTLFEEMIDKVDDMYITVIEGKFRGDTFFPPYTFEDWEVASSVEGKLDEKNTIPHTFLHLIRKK

[8] = test system: Mycobacterium tuberculosis; experiment: Antibacterial activity against Mycobacterium tuberculosis H37Ra; assay type: functional
Dihydrofolate reductase [9] = molecular target: T1, Dihydrofolate reductase (Mycobacterium tuberculosis, UniProt P9WNX1); experiment: Inhibition of Mycobacterium tuberculosis DHFR
T1 sequence (P9WNX1 whole entry): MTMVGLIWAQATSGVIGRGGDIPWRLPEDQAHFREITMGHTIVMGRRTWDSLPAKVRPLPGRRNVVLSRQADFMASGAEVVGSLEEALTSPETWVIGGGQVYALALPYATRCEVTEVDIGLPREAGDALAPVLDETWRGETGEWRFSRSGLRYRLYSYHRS

Dihydrofolate reductase [10] = molecular target: T2, Dihydrofolate reductase (Homo sapiens, UniProt P00374); experiment: Inhibition of human DHFR
T2 sequence (P00374 whole entry): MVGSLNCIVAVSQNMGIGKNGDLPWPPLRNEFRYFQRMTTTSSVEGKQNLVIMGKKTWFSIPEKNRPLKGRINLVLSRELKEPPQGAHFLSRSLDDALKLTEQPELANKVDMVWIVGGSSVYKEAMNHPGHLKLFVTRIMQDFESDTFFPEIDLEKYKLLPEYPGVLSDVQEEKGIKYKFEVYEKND

[11] = Cytotoxicity against human NCM460 cells assessed as inhibition rate of cell growth at 100 uM incubated for 24 hrs by CCK8 assay relative to control; assay type: toxicity, cell-based
[12] = Cytotoxicity against HEK293 cells assessed as inhibition rate of cell growth at 100 uM incubated for 24 hrs by CCK8 assay relative to control; assay type: toxicity, cell-based; conditions: human
[13] = test system: Dihydrofolate reductase (Staphylococcus aureus); conditions: dose 100.0 nM

Row | SMILES | MIC (Staphylococcus aureus [1]) | MIC (Staphylococcus aureus [2]) | MIC (Staphylococcus aureus [3]) | MIC (Staphylococcus aureus [4]) | MIC (Staphylococcus aureus [5]) | MIC (Staphylococcus aureus [6]) | IC50 (Dihydrofolate reductase [7]) | MIC [8] | IC50 (Dihydrofolate reductase [9]) | IC50 (Dihydrofolate reductase [10]) | inhibition at 24 h, 100 µM [11] | inhibition at 24 h, 100 µM [12] | inhibition [13]
1 | Cc1cc(NS(=O)(=O)c2ccc(N)cc2)no1 [SULFAMETHOXAZOLE] | 256 µg/mL (≈ 1010 µM) | 4 µg/mL (≈ 15.8 µM) | 2 µg/mL (≈ 7.9 µM) | 2 µg/mL (≈ 7.9 µM) | 4 µg/mL (≈ 15.8 µM) | 0.5 µg/mL (≈ 1.97 µM) | – | – | – | – | – | – | –
2 | COc1cc(C(C)C)c(Oc2cnc(N)nc2N)cc1I | – | 0.5 µg/mL (≈ 1.25 µM) | 0.125 µg/mL (≈ 0.312 µM) | 0.063 µg/mL (≈ 0.157 µM) | 8 µg/mL (≈ 20 µM) | 8 µg/mL (≈ 20 µM) | 32.9 nM | 50 µg/mL (≈ 125 µM) | 3500 nM | 176000 nM | 32.1% | 26.1% | –
3 | COc1cc(C(C)C)c(Oc2cnc(N)nc2N)cc1-c1ccc(C(C)C)cc1 | – | 1 µg/mL (≈ 2.55 µM) | 0.25 µg/mL (≈ 0.637 µM) | 0.25 µg/mL (≈ 0.637 µM) | 4 µg/mL (≈ 10.2 µM) | 4 µg/mL (≈ 10.2 µM) | 1.81 nM | – | – | 2910 nM | 44% | 46.9% | 55.7%
